Experimental data reported in patent US8709419B2, “Combination therapy” (Hoffmann-La Roche, Inc., priority 2010, dated 2014).
Where a name gives a salt, the structure may show the parent alone. Read-outs that look alike come from different tables or passages of the source.

Columns and labels:
[1] = Toxicity in Example 5 study: body weight change, mortality, gross observation
[2] = test system: Human HT-29 Cell Xenografts; test: HT-29 xenograft mice, Example 5 (Compound I / cetuximab, treatment day 12-34): tumor growth inhibition, regression, survival; format: in vivo; settings: for 50% Treatment Days: median survival
Method: (§1) Differences between groups were considered to be significant when the probability value (p) was ≦0.05.
(§2) For survival assessment, the percent of increased life space (ILS) was calculated as: 100×[(median survival day of treated group−median survival day of control group)/median survival day of control group]. Median survival was determined utilizing Kaplan Meier survival analysis. […] Differences between groups were considered significant when the probability value (p) was ≦0.05.
(§3) Tumor measurements were taken once or twice per week. All animals were individually followed throughout the experiment.

[3] = Solubility in water, amorphous versus crystalline form; format: physicochemical; settings: amorphous form as compared with the crystalline form
[4] = Toxicity in Example 6 study: body weight change, mortality, gross observation
[5] = test system: Human HT-29 Cell Xenografts; test: HT-29 xenograft mice, Example 4 (Compound I / erlotinib HCl, treatment day 12-29): tumor growth inhibition, regression, survival; format: in vivo; settings: for Complete Regression / Partial Regression: animals of 10 per group; for 50% Treatment Days: median survival
Method: as §1, §2, §3

[6] = test system: Human HT-29 Cell Xenografts; settings: for tumor regression (partial or complete): Ex.6: Compound I 25 mg/kg bid, cetuximab 40 mg/kg 2x/wk, irinotecan HCl 40 mg/kg q4d x5 monotherapies, cetuximab + irinotecan combination
[7] = Toxicity in Example 4 study: body weight change, mortality, gross observation
Method: Erlotinib hydrochloride at 100 mg/kg qd was included as a monotherapy arm for comparison.

[8] = erlotinib hydrochloride 100 mg/kg qd in combination; Higgins et al., Anticancer Drugs 15:503-12 (2004); cited from earlier work
[9] = Ex.5: Compound I 25 mg/kg bid po
[10] = Ex.5: Compound I 75 mg/kg bid po
[11] = Ex.5: Compound I 75 mg/kg bid po, animals of 10 per group
[12] = Ex.6: Compound I 25 mg/kg bid po
[13] = Ex.4: Compound I 75 mg/kg bid po
[14] = Ex.6: Compound I 25 mg/kg bid po, animals of 10 per group
[15] = Ex.4: erlotinib HCl 67 mg/kg qd po
[16] = Ex.4: erlotinib HCl 100 mg/kg qd po
[17] = Ex.6: irinotecan HCl 40 mg/kg q4d x5 ip

In the case of `CCCS(=O)(=O)Nc1ccc(F)c(C(=O)c2c[nH]c3ncc(-c4ccc(Cl)cc4)cc23)c1F` [Compound I, propane-1-sulfonic acid {3-[5-(4-chloro-phenyl)-1H-pyrrolo[2,3-b]pyridine-3-carbonyl]-2,4-difluoro-phenyl}-amide], the “# animals ≧ 20% BWL” value [1, 9] was 0, the “% Change in Body Weight at end of Study Day 34” value [1, 9] was 0.1% and the “Max % Weight Gain” value [1, 9] was 0.3%. The “Max % Weight Loss” value [1, 9] was −2.2%, the Mortality [1, 9] was 0 and the “# animals ≧ 20% BWL” value [1, 10] was 0. For the same compound, the “% Change in Body Weight at end of Study Day 34” value [1, 10] was −0.1%, the “Max % Weight Gain” value [1, 10] was 0.7% and the “Max % Weight Loss” value [1, 10] was −1.4%. The Mortality [1, 10] was 0, the “% ILS” value [2, 9] was 44% and the “% Inhibition end of study Day: 34” value [2, 9] was 74%. The “% T/C end of study Day: 34” value [2, 9] was 26%, the “% Tumor Growth Inhibition” value [2, 9] was 74% and the “Mean Tumor Volume (mm^3) End Study” value [2, 9] was 615.99 mm^3. For the same compound, the “50% Treatment Days” value [2, 9] was 46 days, the “% ILS” value [2, 10] was 75% and the “% Inhibition end of study Day: 34” value [2, 10] was 93%. The “% T/C end of study Day: 34” value [2, 10] was 7%, the “% Tumor Growth Inhibition” value [2, 10] was 93% and the “Mean Tumor Volume (mm^3) End Study” value [2, 10] was 275.66 mm^3. For the same compound, the “Complete Regression” value [2, 11] was 0, the “Partial Regression” value [2, 11] was 0 and the “50% Treatment Days” value [2, 10] was 56 days. The solubility in water [3] was “greater solubility in water”, the “# animals ≧ 20% BWL” value [4, 12] was 0 and the “% Change in Body Weight at end of Study Day 32” value [4, 12] was 2.9%. For the same compound, the “Max % Weight Gain” value [4, 12] was 3.8%, the “Max % Weight Loss” value [4, 12] was −0.6% and the Mortality [4, 12] was 0. For the same compound, the “% ILS” value [5, 13] was 100%, the “% Inhibition end of study Day: 29” value [5, 13] was 91% and the “% T/C end of study Day: 29” value [5, 13] was 9%. The “% Tumor Growth Inhibition” value [5, 13] was 91%, the “Mean Tumor Volume (mm^3) End Study” value [5, 13] was 270.24 mm^3 and the “Complete Regression” value [5, 13] was 0. The “Partial Regression” value [5, 13] was 0, the “50% Treatment Days” value [5, 13] was 52 days and the “Complete Regression” value [6, 14] was 0. The “Partial Regression” value [6, 14] was 0 and the “tumor regression (partial or complete)” value [6] was “no regressions”.
In the case of `C#Cc1cccc(Nc2ncnc3cc(OCCOC)c(OCCOC)cc23)c1` [Erlotinib HCl, erlotinib hydrochloride], the “# animals ≧ 20% BWL” value [7, 15] was 0, the “% Change in Body Weight at end of Study Day 29” value [7, 15] was 3.1% and the “Max % Weight Gain” value [7, 15] was 3.1%. For the same compound, the “Max % Weight Loss” value [7, 15] was 0.1%, the Mortality [7, 15] was 0 and the “# animals ≧ 20% BWL” value [7, 16] was 0. For the same compound, the “% Change in Body Weight at end of Study Day 29” value [7, 16] was 2.9%, the “Max % Weight Gain” value [7, 16] was 3.0% and the “Max % Weight Loss” value [7, 16] was −1.6%. The Mortality [7, 16] was 0, the “EGFR inhibitor related skin rash” value ([7]; Ex.4: mice treated with erlotinib hydrochloride, self limiting under continuous treatment) was “skin rash was common” and the “tolerability in combination (historical)” value [8] was “not well tolerated”. The “% ILS” value [5, 15] was 35%, the “% Inhibition end of study Day: 29” value [5, 15] was 38% and the “% T/C end of study Day: 29” value [5, 15] was 62%. The “% Tumor Growth Inhibition” value [5, 15] was 38%, the “Mean Tumor Volume (mm^3) End Study” value [5, 15] was 1025.10 mm^3 and the “Complete Regression” value [5, 15] was 0. For the same compound, the “Partial Regression” value [5, 15] was 0, the “50% Treatment Days” value [5, 15] was 35 days and the “% ILS” value [5, 16] was 38%. The “% Inhibition end of study Day: 29” value [5, 16] was 51%, the “% T/C end of study Day: 29” value [5, 16] was 49% and the “% Tumor Growth Inhibition” value [5, 16] was 51%. For the same compound, the “Mean Tumor Volume (mm^3) End Study” value [5, 16] was 838.75 mm^3, the “Complete Regression” value [5, 16] was 0 and the “Partial Regression” value [5, 16] was 0. For the same compound, the “50% Treatment Days” value [5, 16] was 36 days.
For `CCc1c2c(nc3ccc(OC(=O)N4CCC(N5CCCCC5)CC4)cc13)-c1cc3c(c(=O)n1C2)COC(=O)[C@]3(O)CC` [Irinotecan HCl, irinotecan hydrochloride, reference compound], the “# animals ≧ 20% BWL” value [4, 17] was 0, the “% Change in Body Weight at end of Study Day 32” value [4, 17] was 2.7% and the “Max % Weight Gain” value [4, 17] was 2.8%. For the same compound, the “Max % Weight Loss” value [4, 17] was 0.1%, the Mortality [4, 17] was 0 and the “tumor regression (partial or complete)” value [6] was “no regressions”. For the same compound, the “% ILS” value [6, 17] was 17%.
